Assay results published in patent US20170266155A1, “METHOD FOR ENHANCING THE OXYGENATION LEVEL OF TISSUE CELLS AS AN ALTERNATIVE METHOD FOR HYPERBARIC OXYGEN THERAPY” (National Sun Yat-sen University, priority 2016, published 2017).

Molecular target: hemoglobin (Hb) (Homo sapiens, UniProt P68871+P69905)
Assay: Oxygen equilibrium curves and P50 value of hemoglobin (Hb)
Assay type: biochemical
Conditions: for effect of phthalide compound together with 2,3-BPG on oxygen release efficiency of hemoglobin (Hb): combined with 2,3-BPG (FIG. 1)
Description: The oxygen affinity of hemoglobin (Hb) is commonly characterized by P50 value. The P50 value is the required oxygen partial pressure to achieve 50% oxygen saturation of hemoglobin. […] An increased blood PCO2, a decreased pH or an increased 2,3-BPG level in erythrocytes can all decrease the oxygen affinity of hemoglobin (Hb), so that the oxygen equilibrium curve shifts to the right and the P50 value increases (as shown in FIG. 2); contrarily, when the oxygen affinity of hemoglobin (Hb) increases, the oxygen equilibrium curve shifts to the left and the P50 value decreases.
The oxygen affinity of hemoglobin (Hb) was commonly characterized by P50 value. The P50 value was the required oxygen partial pressure to achieve 50% oxygen saturation for hemoglobin. […] An increased blood PCO2, a decreased pH or an increased 2,3-BPG concentration in erythrocytes could decrease the oxygen affinity of hemoglobin (Hb), as a result, the oxygen equilibrium curve shifted to the right and the P50 value increased (as shown in FIG. 2); contrarily, when the oxygen affinity of hemoglobin (Hb) increased, the oxygen equilibrium curve shifted to the left and the P50 value decreased.

Sequence of hemoglobin (Hb) (P69905 2-142 limits assumed): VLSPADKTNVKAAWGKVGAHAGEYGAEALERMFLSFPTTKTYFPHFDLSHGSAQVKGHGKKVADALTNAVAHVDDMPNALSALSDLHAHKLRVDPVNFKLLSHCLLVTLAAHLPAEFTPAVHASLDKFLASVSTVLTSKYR
Sequence of hemoglobin (Hb) (P68871 2-147 limits assumed): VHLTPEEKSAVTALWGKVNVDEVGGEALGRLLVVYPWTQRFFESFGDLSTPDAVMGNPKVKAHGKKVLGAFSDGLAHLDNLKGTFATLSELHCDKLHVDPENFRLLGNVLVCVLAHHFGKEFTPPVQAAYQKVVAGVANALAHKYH

O=C(O)C(COP(=O)(O)O)OP(=O)(O)O (stereo not drawn) [2,3-BPG, 2,3-bisphosphorglycerate]
oxygen saturation fraction of hemoglobin (Hb) (12 mM 2,3-BPG, fixed oxygen partial pressure of 20 mmHg, 80% where no 2,3-BPG is present (FIG. 3)): 35% | oxygen release efficiency of Hb (12 mM 2,3-BPG, oxygen partial pressure 20 mmHg, 20% without 2,3-BPG): 65% | P50 value / shift of oxygen equilibrium curve with concentration (2,3-BPG concentrations 0.2-12 mM (FIG. 3)): the P50 value is higher | oxygen release efficiency (PO2=20 mmHg, 1.2 mM 2,3-BPG alone): 40% | oxygen saturation fraction (PO2=20 mmHg, 1.2 mM 2,3-BPG alone (FIG. 6)): approximately 60% | P50 value of hemoglobin (Hb) (approximately 4 mM 2,3-BPG, no phthalide compound (FIG. 5)): 18.8 mmHg

CCC/C=C1\OC(=O)c2ccccc21 [Z-Butylidenephthalide, Z-butylidenephthalide]
effect on oxygen release efficiency of hemoglobin (Hb) from resulting P50 values (shortest detection time frame (30 minutes) (FIG. 2)): increasing the oxygen release efficiency of hemoglobin (Hb)

CCC/C=C1\OC(=O)C2=C1CCC=C2 [Z-ligustilide]
effect of phthalide compound together with 2,3-BPG on oxygen release efficiency of hemoglobin (Hb): synergistic effect

CCC/C=C1\OC(=O)C2=C1CC[C@@H](O)[C@@H]2O [senkyunolide I]
effect of phthalide compound together with 2,3-BPG on oxygen release efficiency of hemoglobin (Hb): synergistic effect
